What all share (assay): two-electrode voltage clamp, Xenopus oocytes
Common to all, as to format: cell-based
On the technique in general: In two-electrode clamp one electrode senses voltage and the other passes current.

In test [1] the target is T1, AsegIR75p.1/AsegIR8a (Agrotis segetum, UniProt Z9OWS8C5E7).
T1 construct: full-length cDNA in pCS2+, cRNA co-injected with AsegIR8a cRNA in Xenopus laevis oocytes; with Ionotropic receptor 8a
T1 sequence (Z9OWS8C5E7 1-676): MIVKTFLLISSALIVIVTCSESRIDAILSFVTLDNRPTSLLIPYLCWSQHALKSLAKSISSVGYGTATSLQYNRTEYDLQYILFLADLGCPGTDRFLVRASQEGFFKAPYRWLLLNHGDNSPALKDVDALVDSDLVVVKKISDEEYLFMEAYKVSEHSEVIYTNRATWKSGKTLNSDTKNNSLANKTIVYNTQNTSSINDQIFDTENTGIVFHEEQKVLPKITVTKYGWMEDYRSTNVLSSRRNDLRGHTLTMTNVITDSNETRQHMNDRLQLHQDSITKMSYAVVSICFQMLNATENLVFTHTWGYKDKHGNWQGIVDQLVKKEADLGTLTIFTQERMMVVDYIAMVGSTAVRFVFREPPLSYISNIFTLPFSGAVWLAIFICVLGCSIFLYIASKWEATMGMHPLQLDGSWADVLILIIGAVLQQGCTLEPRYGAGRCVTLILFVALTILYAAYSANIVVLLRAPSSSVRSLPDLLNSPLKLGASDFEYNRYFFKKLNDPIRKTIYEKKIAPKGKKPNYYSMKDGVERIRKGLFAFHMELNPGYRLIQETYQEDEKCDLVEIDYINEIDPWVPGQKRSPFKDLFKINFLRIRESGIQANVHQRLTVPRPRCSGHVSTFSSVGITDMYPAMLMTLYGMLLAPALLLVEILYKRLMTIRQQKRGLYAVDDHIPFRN
The settings on record: agonist; co-expressed with AsegIR8a; -80 mV; pH 7.6; 0.1% DMSO; 100 μM and dose-response.

The target of test [2] is T2, AsegIR75q.1/AsegIR8a (Agrotis segetum, UniProt Z9J2I4KL46).
T2 construct: full-length cDNA in pCS2+, cRNA co-injected with AsegIR8a cRNA in Xenopus laevis oocytes; with Ionotropic receptor 8a
T2 sequence (Z9J2I4KL46 1-637): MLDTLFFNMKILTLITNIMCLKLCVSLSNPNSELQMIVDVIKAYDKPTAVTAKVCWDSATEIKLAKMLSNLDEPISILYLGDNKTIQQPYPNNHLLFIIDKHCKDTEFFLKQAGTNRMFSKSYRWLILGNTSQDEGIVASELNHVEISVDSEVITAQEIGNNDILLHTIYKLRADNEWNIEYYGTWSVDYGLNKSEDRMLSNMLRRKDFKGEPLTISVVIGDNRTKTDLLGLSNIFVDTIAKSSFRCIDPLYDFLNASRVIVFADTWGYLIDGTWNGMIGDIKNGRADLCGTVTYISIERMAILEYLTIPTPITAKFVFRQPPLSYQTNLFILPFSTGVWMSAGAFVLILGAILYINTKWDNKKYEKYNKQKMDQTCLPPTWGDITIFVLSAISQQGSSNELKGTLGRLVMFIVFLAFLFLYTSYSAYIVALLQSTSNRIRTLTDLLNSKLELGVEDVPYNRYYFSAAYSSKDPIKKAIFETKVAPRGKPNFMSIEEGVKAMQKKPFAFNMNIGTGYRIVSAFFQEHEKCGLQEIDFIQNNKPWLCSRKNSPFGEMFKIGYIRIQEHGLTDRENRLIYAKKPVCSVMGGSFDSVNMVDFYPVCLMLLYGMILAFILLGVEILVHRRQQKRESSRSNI
The settings on record: agonist, weak; co-expressed with AsegIR8a; -80 mV; pH 7.6; 0.1% DMSO; 100 μM.

In test [3] the target is T2, AsegIR75q.1/AsegIR8a. Conditions: agonist; co-expressed with AsegIR8a; -80 mV; pH 7.6; 0.1% DMSO; dose-response.

Consider five compounds from paper PMC8822749, “Ionotropic receptors in the turnip moth Agrotis segetum respond to repellent medium-chain fatty acids” (BMC Biology, 2022).

Regarding `CC/C=C\CCO` [(Z)-3-hexenol], in test [1], the “two-electrode voltage clamp, Xenopus oocytes” value (“two-electrode voltage clamp” below) was “hexanoic acid, followed by (Z)-3-hexenol, (E)-2-hexenal, and hexanal”. With `CCCCCCC(=O)O` [heptanoic acid], in test [2], the “two-electrode voltage clamp” value is “This receptor also responded slightly to heptanoic acid and octanal”. For the compound `CCCCCC(=O)O` [hexanoic acid], in test [1], the “two-electrode voltage clamp” value was “The strongest response was elicited by hexanoic acid”. For `CCCCCCCCC(=O)O` [nonanoic acid], the threshold concentration in test [3] amounted to 1 µM. Regarding `CCCCCCCC=O` [octanal], the “two-electrode voltage clamp” value in test [2] is “This receptor also responded slightly to heptanoic acid and octanal”.
